Source: patent US20180099937A1, “NOVEL ARYL-CYANOGUANIDINE COMPOUNDS” (Bayer Pharma Aktiengesellschaft, priority 2015, published 2018)

Legend:
SMYD2 [1] = target: T1, SMYD2 (Homo sapiens, UniProt Q9NRG4); experiment: In Cell Western (ICW) cell-based assay for detection of SMYD2 methylation activity; set-up: expressed in transfected cells; host or cells: KYSE-150 (human esophageal carcinoma, DSMZ ACC 375); conditions: SMYD2 overexpressing KYSE-150 cells, 72 h treatment, p53K370me1 signal normalized to DRAQ5; read-out: IC50 [mol/l] (ICW assay)
From the text: 1.2 Cell-Based Assay for Detection of SMYD2 methylation Activity
For the detection of SMYD2 cellular methylation activity an In Cell Western (ICW) assay was established. This assay allows rapid processing of multiple samples for SMYD2 methylation derived immunofluorescence signals, with normalization to cell number via the use of the nucleic acid dye DRAQS. KYSE-150 cells (human esophageal carcinoma cell line; DSMZ-German Collection of Microorganisms and Cell Cultures; No: ACC 375) have been stably transfected with a construct expressing wild-type SMYD2 (NCBI Reference Sequence: NP_064582.2). To detect SMYD2-mediated methylation signals in cells, a customized antibody directed against mono-methylated lysine 370 on protein p53 (p53K370me1) was used. The polyclonal antibody was generated (Eurogentec) against a p53 peptide containing the mono-methylated K370 epitope as described elsewhere (Huang et al., Nature, 2006, 444(7119):629-32).
For conducting the ICW assay 5000 SMYD2 overexpressing KYSE-150 cells/well were seeded in 96-well plates (SIGMA) and cultivated for 24 h. As a control for maximal inhibition of ectopic methylation activity, non-transfected KYSE-150 cells were used. Cells were grown in 49% RPMI 1640 with 49% Ham's F12 media supplemented with 2% heat inactivated fetal calf serum (FCS). For determination of SMYD2 inhibitory activity, cells were treated for 72 h in the presence of compounds or with DMSO. Cells were treated with compounds to be tested at a final concentration range varying from 3.9×10^−8 to 5×10^−6 M. Media was removed and 3.7% (w/v) formaldehyde in PBS was added for 20 min. After two washes with phosphate buffered saline (PBS), 0.25% (v/v) Triton X100 in PBS was added for 15 minutes of permeabilization. After one washing step with PBS, cells were blocked for 1 h with 5% (w/v) non-fat dry milk in PBS. Fixed cells were exposed to primary […] antibody in 5% non-fat dry milk in PBS for 24 h. One row of cells on each plate was not exposed to p53K370me1 antibody and was reserved for background control measurements. The wells were washed three times with PBS, then secondary IR800 conjugated antibody (LI-COR) and DNA-intercalating dye, 5 μM DRAQ5 (LI-COR) were added for 3 h. After 5 washes with PBS, the fluorescence in each well was measured on an Odyssey (LI-COR) scanner at 800 nm (p53K370me1 signal; 764 nm excitation) and 700 nm (DRAQS signal; 683 nm excitation). Fluorescence intensity was quantified and normalized to background and DRAQ5 signals. IC50 values were calculated by fitting the normalized inhibition data to a 4-parameter logistic equation (Minimum, Maximum, IC50, Hill; Y=Max+(Min−Max)/(1+(X/IC50)Hill)) for each tested compound. For IC50 determination C0 (=no inhibition) was defined as the signal measured for DMSO treated controls. Ci (maximal inhibition) was defined as the signal measured for non SMYD2 overexpressing KYSE150 cells.

SMYD2 [2] = target: T1, SMYD2; experiment: Scintillation Proximity Assay (SPA) for detection of SMYD2 enzymatic inhibition; format: biochemical; set-up: The SMYD2 full length enzyme was produced in-house by expression (with an N-terminal 6× His tag) in E. coli; 6xHis (N); made in house; host or cells: E. coli; conditions: SMYD2 full length enzyme, p53 Peptide substrate 1.0 μM, 3H-SAM 60 nM; read-out: IC50 [mol/l] (SPA Assay)
In short: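 Full-length N-His SMYD2 from E. coli (typically 3 nM) was preincubated with compounds (0.1 nM–20 μM) for 15 min, then reacted 30 min at 22° C with 60 nM 3H-SAM and 1.0 μM biotinylated p53 peptide in Tris pH 9.0. Streptavidin SPA beads read methylation, and IC50 came from a 4-parameter fit.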

T1 sequence (Q9NRG4 whole entry): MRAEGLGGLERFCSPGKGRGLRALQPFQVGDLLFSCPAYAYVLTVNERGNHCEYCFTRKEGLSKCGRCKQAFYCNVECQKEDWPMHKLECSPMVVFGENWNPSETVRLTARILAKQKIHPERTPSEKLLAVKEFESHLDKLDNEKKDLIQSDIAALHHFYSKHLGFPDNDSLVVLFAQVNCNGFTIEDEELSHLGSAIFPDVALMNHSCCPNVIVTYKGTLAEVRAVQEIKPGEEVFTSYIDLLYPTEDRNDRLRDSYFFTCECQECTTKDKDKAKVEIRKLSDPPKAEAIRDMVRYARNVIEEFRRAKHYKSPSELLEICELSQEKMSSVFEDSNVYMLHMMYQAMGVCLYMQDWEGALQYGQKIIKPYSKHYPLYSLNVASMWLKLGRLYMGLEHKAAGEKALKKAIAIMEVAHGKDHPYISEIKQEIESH

Row | SMILES | IC50 (SMYD2 [1]) [nM] | IC50 (SMYD2 [2]) [nM]
1 | CCN(C(=O)[C@H]1CCCN1)C1CN(/C(=N\C#N)Nc2cccc(OC(F)F)c2)N=C1c1ccc(Cl)c(Cl)c1 (mixture of isomers) [Example 1, N-[1-{N′-Cyano-N-[3-(difluoromethoxy)phenyl]carbamimidoyl}-3-(3,4-dichlorophenyl)-4,5-dihydro-1H-pyrazol-4-yl]-N-ethyl-D-prolinamide] | 161 | 24.7
2 | CCN(C(=O)[C@H]1CCN1)C1CN(/C(=N\C#N)Nc2cccc(OC(F)F)c2)N=C1c1ccc(Cl)c(Cl)c1 (mixture of isomers) [Example 2, (2R)-N-[1-{N′-cyano-N-[3-(difluoromethoxy)phenyl]carbamimidoyl}-3-(3,4-dichlorophenyl)-4,5-dihydro-1H-pyrazol-4-yl]-N-ethylazetidine-2-carboxamide] | 44.5 | 14.5
3 | C[C@]1(C(=O)NC2CN(/C(=N\C#N)Nc3cccc(OC(F)F)c3)N=C2c2ccc(Cl)c(Cl)c2)CCCN1 (mixture of isomers) [Example 6, N-[1-{N′-Cyano-N-[3-(difluoromethoxy)phenyl]carbamimidoyl}-3-(3,4-dichlorophenyl)-4,5-dihydro-1H-pyrazol-1-yl]-2-methyl-D-prolinamide] | 104 | 11.3
4 | CN(C(=O)[C@H]1C[C@@H](O)CN1)C1CN(/C(=N\C#N)Nc2cccc(OC(F)F)c2)N=C1c1ccc(Cl)c(Cl)c1 (mixture of isomers) [Example 12, (4R)-N-[1-{N′-Cyano-N-[3-(difluoromethoxy)phenyl]carbamimidayl}-3-(3,4-dichlorophenyl)-4,5-dihydro-1H-pyrazol-1-yl]-4-hydroxy-N-methyl-D-prolinamide] | 313 | 16.8
5 | CCN(C(=O)[C@H]1CCCN1)C1CN(/C(=N\C#N)Nc2cc(OC)cc(C(F)(F)F)c2)N=C1c1ccc(Cl)c(Cl)c1 (mixture of isomers) [Example 28, N-[1-{N′-Cyano-N-[3-methoxy-5-(trifluoromethyl)phenyl]carbamimidoyl}-3-(3,4-dichlorophenyl)-4,5-dihydro-1H-pyrazol-4-yl]-N-ethyl-D-prolinamide] | 77 | 39.5
6 | CCN(C(=O)[C@H]1CCCN1)C1CN(/C(=N\C#N)Nc2cc(OC)ccc2Cl)N=C1c1ccc(Cl)c(Cl)c1 (mixture of isomers) [Example 32, N-{1-[N-(2-Chloro-5-methoxyphenyl)-N′-cyanocarbamimidoyl]-3-(3,4-dichlorophenyl)-4,5-dihydro-1H-pyrazol-4-yl}-N-ethyl-D-prolinamide] | 268 | 38.4
7 | CCN(C(=O)[C@H]1CCN1)C1CN(/C(=N\C#N)Nc2cccc(OC(F)F)c2)N=C1c1ccc(Cl)c(C)c1 (mixture of isomers) [Example 36, (2R)-N-[3-(4-Chloro-3-methylphenyl)-1-{N′-cyano-N-[3-(difluoromethoxy)phenyl]-carbamimidoyl}-4,5-dihydro-1H-pyrazol-4-yl]-N-ethylazetidine-2-carboxamide] | 3.87 | 8.03
8 | CCN(C(=O)[C@H]1C[C@@H](F)CN1)C1CN(/C(=N\C#N)Nc2cccc(OC(F)F)c2)N=C1c1ccc(Cl)c(C)c1 (mixture of isomers) [Example 38, (4R)-N-[3-(4-Chloro-3-methylphenyl)-1-{N′-cyano-N-[3-(difluoromethoxy)phenyl]carbamimidoyl}-4,5-dihydro-1H-pyrazol-4-yl]-N-ethyl-4-fluoro-D-prolinamide] | 18.8 | 387
9 | CCCN(C(=O)[C@H]1CCCN1)C1CN(/C(=N\C#N)Nc2cccc(OC(F)F)c2)N=C1c1ccc(Cl)c(C)c1 (mixture of isomers) [Example 40, N-[3-(4-Chloro-3-methylphenyl)-1-{N′-cyano-N-[3-(difluoromethoxy)phenyl]carbamimidoyl}-4,5-dihydro-1H-pyrazol-4-yl]-N-propyl-D-prolinamide] | 206 | 44.3
10 | CCN(C(=O)c1cccc(=O)[nH]1)C1CN(/C(=N\C#N)Nc2cccc(OC(F)F)c2)N=C1c1ccc(Cl)c(Cl)c1 (racemic) [Example 5, rac-N-[1-{N′-Cyano-N-[3-(difluoromethoxy)phenyl]carbamimidoyl}-3-(3,4-dichlorophenyl)-4,5-dihydro-1-pyrazol-4-yl]-N-ethyl-6-oxo-1,6-dihydropyridine-2-carboxamide] | 720 | 793
11 | CCN(C(=O)c1cccc(=O)[nH]1)C1CN(/C(=N\C#N)Nc2cccc(OC(F)(F)F)c2)N=C1c1ccc(Cl)c(Cl)c1 (racemic) [Example 18, rac-N-[1-{N′-Cyano-N-[3-(trifluoromethoxy)phenyl]carbamimidoyl}-3-(3,4-dichlorophenyl)-4,5-dihydro-1H-pyrazol-4-yl]-N-ethyl-6-oxo-1,6-dihydropyridine-2-carboxamide] | 764 | 1520
12 | N#C/N=C(/Nc1cccc(OC(F)F)c1)N1CC(NC(=O)[C@@H]2CCC[C@@H]2N)C(c2ccc(Cl)c(Cl)c2)=N1 (relative stereo) [Example 41, Rel-(1R,2S)-2-amino-N-[1-{N′-cyano-N-[3-(difluoromethoxy)phenyl]carbamimidoyl}-3-(3,4-dichlorophenyl)-4,5-dihydro-1H-pyrazol-4-yl]cyclopentanecarboxamide] | 571 | 121
13 | CCN(C(=O)[C@H]1CCCN1)C1CN(/C(=N\C#N)Nc2cccc(OC(F)F)c2)N=C1c1ccc(Cl)c(Cl)c1 (single isomer, unassigned) [Example 1.1, N-[1-{N′-Cyano-N-[3-(difluoromethoxy)phenyl]carbamimidoyl}-3-(3,4-dichlorphenyl)-4,5-dihydro-1H-pyrazol-4-yl]-N-ethyl-D-prolinamide] | 2.6 | 4.45
14 | CCN(C(=O)[C@H]1C[C@@H](O)CN1)C1CN(/C(=N\C#N)Nc2cccc(OC(F)F)c2)N=C1c1ccc(Cl)c(Cl)c1 (single isomer, unassigned) [Example 3.1] | 63.4 | 19.8
15 | CCN(C(=O)[C@H]1CCCN1)C1CN(/C(=N\C#N)Nc2cccc(OC(F)F)c2F)N=C1c1ccc(Cl)c(Cl)c1 (single isomer, unassigned) [Example 13.1, N-[1-{N′-Cyano-N-[3-(difluoromethoxy)-2-fluorophenyl]carbamimidoyl}-3-(3,4-dichlorophenyl)-4,5-dihydro-1H-pyrazol-4-yl]-N-ethyl-D-prolinamide] | 20.3 | 15.6
16 | CCN(C(=O)[C@H]1CCCN1)C1CN(/C(=N\C#N)Nc2cccc(OC(F)(F)F)c2F)N=C1c1ccc(Cl)c(Cl)c1 (single isomer, unassigned) [Example 21.1, N-[1-{N′-Cyano-N-[2-fluoro-3-(trifluoromethoxy)phenyl]carbamimidoyl}-3-(3,4-dichlorophenyl)-4,5-dihydro-1H-pyrazol-4-yl]-N-ethyl-D-prolinamide] | 16.8 | 28
17 | CCN(C(=O)[C@H]1CCCN1)C1CN(/C(=N\C#N)Nc2cccc(OC(F)(F)F)c2F)N=C1c1ccc(Cl)c(Cl)c1 (single isomer, unassigned) [Example 21.2, N-[1-{N′-Cyano-N-[2-fluoro-3-(trifluoromethoxy)phenyl]carbamimidoyl}-3-(3,4-dichlorophenyl)-4,5-dihydro-1H-pyrazol-4-yl]-N-ethyl-D-prolinamide] | 228 | 878
